Source: US6531314B1, “Growth hormone secretagogue receptor family” (Merck & Co., Inc., priority 1998, dated 2003)

Legend:
[1] = molecular target: T1, swine growth hormone secretagogue receptor (Type I, clone 7-3) (Sus scrofa, UniProt Q95254); experiment: 35S-Compound A binding assay, membranes of COS-7 cells transfected with clone 7-3
rat GHSR type Ia = molecular target: T2, rat GHSR type Ia (Rattus norvegicus, UniProt O08725); experiment: aequorin bioluminescence in transfected 293-AEQ17 reporter cells; assay type: cell-based; details: rat GHSR ORF construct in 293-AEQ17 cells; three replicate samples (FIG. 26)
T2 construct: Met-1 to Val-260 with EcoRI (5′) and HpaI (3′) restriction sites appended, while a carboxyl-terminal fragment was generated from Lys-261 to Thr-364; expressed in transfected cells; host or cells: 293-AEQ17 (HEK-293 aequorin reporter line), transient lipofectamine transfection of the pSV7 ORF construct
T2 sequence (O08725 whole entry, the tested form may be a part): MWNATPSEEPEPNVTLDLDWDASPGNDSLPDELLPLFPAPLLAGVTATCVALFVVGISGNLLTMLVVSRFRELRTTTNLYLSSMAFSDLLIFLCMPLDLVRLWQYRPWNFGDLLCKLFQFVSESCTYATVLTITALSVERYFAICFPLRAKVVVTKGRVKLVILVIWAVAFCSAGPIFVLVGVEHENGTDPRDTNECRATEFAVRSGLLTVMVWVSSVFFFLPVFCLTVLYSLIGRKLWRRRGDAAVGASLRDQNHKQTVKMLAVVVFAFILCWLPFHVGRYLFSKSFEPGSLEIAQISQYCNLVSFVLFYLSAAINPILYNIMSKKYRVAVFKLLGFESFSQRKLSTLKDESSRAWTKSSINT
Procedure: Functional activity of the ORF construct was assessed by transfecting (using lipofectamine; GIBCO/BRL) […] of plasmid DNA into the aequorin expressing reporter cell line (293-AEQ17) cultured in 60 mm dishes. Following approximately 40 hours of expression the aequorin in the cells was charged for 2 hours with coelenterazine, the cells were harvested, washed and pelleted by low speed centrifugation into luminometer tubes. Functional activity was determined by measuring Compound A dependent mobilization of intracellular calcium and concomitant calcium induced aequorin bioluminescence.

[2] = molecular target: T1, swine growth hormone secretagogue receptor (Type I, clone 7-3); experiment: aequorin bioluminescence assay in Xenopus oocytes; assay type: cell-based; set-up: bioluminescence response: dose or concentration left out as unconfirmed
Procedure: (§1) Xenopus laevis oocytes were isolated and injected using standard methods previously described by Arena, et al., 1991, Mol. Pharmacol. 40, 368-374, which is hereby incorporated by reference. Adult female Xenopus laevis frogs (purchased from Xenopus One, Ann Arbor, Mich.) were anesthetized with 0.17% tricaine methanesulfonate and the ovaries were surgically removed and placed in a 60 mm culture dish (Falcon) containing OR-2 medium without calcium (82.5 mM NaCl, 2 mM KCl, 2.5 mM sodium pyruvate, 1 mM MgCl2, […] penicillin, 1 mg/ml streptomycin, 5 mM HEPES, pH=7.5; ND-96 from Specialty Media, N.J.). Ovarian lobes were broken open, rinsed several times, and oocytes were released from their sacs by collagenase A digestion (Boehringer-Mannheim; 0.2% for 2-3 hours at 18° C.) in calcium-free OR-2. […]
(§2) The ABA requires injection of library pool cRNA (25 ng/egg for pool sizes of 500 to 10,000) with aequorin cRNA (2 ng/egg) supplemented with the G-protein alpha subunit Ga11 (2 ng/egg). […] Polymerase chain reaction (PCR) was utilized to generate a DNA fragment corresponding to the open reading frame (ORF) of the aequorin cDNA with an optimized Kosak translational initiation sequence (Inouye, S. et. ul., 1985, Proc. Natl. Acad. Sci. USA 82:3154-3158). […]

[3] = molecular target: T3, human growth hormone secretagogue receptor (Type I) (Homo sapiens, UniProt Q92847); experiment: aequorin bioluminescence assay in Xenopus oocytes; assay type: cell-based; details: human Type I cRNA expressed in oocytes; responded to concentrations ranging from 1 mM to as low as 0.1 nM
T3 construct: expressed in transfected cells; host or cells: Xenopus laevis oocytes injected with cRNA, together with aequorin and G-alpha-11 cRNA
T3 sequence (Q92847 whole entry): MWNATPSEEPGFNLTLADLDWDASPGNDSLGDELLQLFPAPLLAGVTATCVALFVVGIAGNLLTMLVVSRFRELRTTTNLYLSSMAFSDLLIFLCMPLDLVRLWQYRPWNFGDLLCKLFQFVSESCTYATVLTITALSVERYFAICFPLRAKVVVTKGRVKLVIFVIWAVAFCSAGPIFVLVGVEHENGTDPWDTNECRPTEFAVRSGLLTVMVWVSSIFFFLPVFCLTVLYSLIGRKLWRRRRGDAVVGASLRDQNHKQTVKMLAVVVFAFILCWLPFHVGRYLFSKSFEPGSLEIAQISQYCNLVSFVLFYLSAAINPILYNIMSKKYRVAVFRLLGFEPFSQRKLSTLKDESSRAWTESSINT
Procedure: as §1, §2

T1 sequence (Q95254 65-366): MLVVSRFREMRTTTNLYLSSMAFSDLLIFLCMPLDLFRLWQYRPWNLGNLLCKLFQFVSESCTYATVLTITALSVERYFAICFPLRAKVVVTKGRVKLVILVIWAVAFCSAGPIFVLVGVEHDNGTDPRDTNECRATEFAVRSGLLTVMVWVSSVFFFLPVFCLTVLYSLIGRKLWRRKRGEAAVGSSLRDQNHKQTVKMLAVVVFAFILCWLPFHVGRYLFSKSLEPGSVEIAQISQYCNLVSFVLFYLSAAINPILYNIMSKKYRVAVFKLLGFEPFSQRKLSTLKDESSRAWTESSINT

SMILES | Kd [1] | Bmax ([1]; clone 7-3 expressed transiently in COS-7 cells, saturable binding) | luminescent response (mobilization of intracellular calcium) (rat GHSR type Ia) | bioluminescence response ([2]; oocytes injected with cRNA of clones 7-3 and 28-18) | lowest Compound A concentration giving a response ([2]; swine Type I cRNA expressed in oocytes, responded to concentrations ranging from 1 mM to as low as 0.1 nM) | lowest Compound A concentration giving a response [3]
CC(C)(N)C(=O)N[C@H](COCc1ccccc1)C(=O)N1CCC2(CC1)CN([35S](C)(=O)=O)c1ccccc12 [^35S-Compound A] | ~0.2 nM | ~80 fmol/mg protein |  |  |  | 
CC(C)(N)C(=O)N[C@H](COCc1ccccc1)C(=O)N1CCC2(CC1)CN(S(C)(=O)=O)c1ccccc12 [Compound A] |  |  | luminescent responses | positive bioluminescence response | 0.1 nM | 0.1 nM
